Assays:
[1] = Inhibition of reverse transcriptase at 1 mg/ml; set-up: scale not given: the % may be the effect or the level left
Staphylococcus aureus = assay: Antimicrobial activity against Staphylococcus aureus at 100 ug/disk; assay type: functional; conditions: read-out: IZ
Streptococcus pyogenes [2] = assay: Antimicrobial activity against Streptococcus pyogenes at 100 ug/disk; assay type: functional; conditions: read-out: IZ
Escherichia coli = assay: Antimicrobial activity against Escherichia coli at 100 ug/disk; assay type: functional; conditions: read-out: IZ
Candida albicans [3] = assay: Antimicrobial activity against Candida albicans at 100 ug/disk; assay type: functional; conditions: read-out: IZ
[4] = tested on: Trichophyton mentagrophytes; assay: Antimicrobial activity against Trichophyton mentagrophytes at 100 ug/disk; assay type: functional; conditions: read-out: IZ
[5] = tested on: Nippostrongylus brasiliensis; assay: Antihelminthic activity against Nippostrongylus brasiliensis 4 instar larvae assessed as reduction in motility at 50 ug/mL; assay type: functional; set-up: scale not given: the % may be the effect or the level left
[6] = tested on: Nippostrongylus brasiliensis; assay: Antihelminthic activity against Nippostrongylus brasiliensis 4 instar larvae assessed as reduction in viability at 50 ug/mL; assay type: functional
[7] = tested on: Nippostrongylus brasiliensis; assay: Antihelminthic activity against Nippostrongylus brasiliensis 4 instar larvae assessed as reduction in cast formation at 50 ug/mL; assay type: functional; set-up: scale not given: the % may be the effect or the level left
Candida albicans [8] = assay: Antimicrobial activity against Candida albicans at 10 ug/disk; conditions: read-out: IZ
[9] = tested on: Trichophyton mentagrophytes; assay: Antimicrobial activity against Trichophyton mentagrophytes at 10 ug/disk; assay type: functional; conditions: read-out: IZ
Streptococcus pyogenes [10] = assay: Antimicrobial activity against Streptococcus pyogenes at 10 ug/disk; assay type: functional, organism-based

Compound: CCCCCCCCCCC[C@@H](O)[C@H](C)N (relative stereo)
- Activity [1]: 95%

Compound: CC/C=C/CCCCCCC[C@@H](O)[C@H](C)N (relative stereo) [XETOAMINOL A]
- zone of inhibition at 100 µg/disc (Staphylococcus aureus): 3 mm
- zone of inhibition at 100 µg/disc (Streptococcus pyogenes [2]): 4 mm
- zone of inhibition at 100 µg/disc (Escherichia coli): 7 mm
- zone of inhibition at 100 µg/disc (Candida albicans [3]): 7 mm
- zone of inhibition at 100 µg/disc [4]: 13 mm
- Activity [1]: 97%
- Activity [5]: 100%
- Activity [6]: 100%
- Activity [7]: 90%

Compound: Clc1ccc(COC(Cn2ccnc2)c2ccc(Cl)cc2Cl)c(Cl)c1 (stereo not drawn) [MICONAZOLE]
- zone of inhibition at 10 µg/disc (Candida albicans [8]): 10 mm
- zone of inhibition at 10 µg/disc [9]: 11 mm

Compound: GENTAMICIN
- inhibition zone (IZ) (Streptococcus pyogenes [10]): 10 mm
